{"source": "paper PMC6494845", "about": "(Scientific Reports, 2019)", "key": {"Aβ(1–42) aggregates": {"molecular_target": "T1, Aβ(1–42) aggregates (Homo sapiens, UniProt P05067)", "T1 construct": "β-Amyloid(1–42) peptide was purchased from Bachem; purchased Bachem (Torrance, CA, USA)", "T1 sequence (P05067 672-713)": "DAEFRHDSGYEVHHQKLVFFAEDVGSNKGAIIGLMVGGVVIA", "assay": "In vitro binding assay using Aβ(1–42) aggregates (intrinsic fluorescence of the ligands)", "conditions": "Aβ(1–42) aggregates 1 μM, PBS, 37 °C, 1 h, ligand fluorescence", "procedure": "Binding constants of the ligands for Aβ(1–42) aggregates were determined using the intrinsic fluorescence of the ligands. The binding constant of CRANAD-2 was also measured for comparison. […] Considering the Kd values and feasibility of ^18F-labeling of all the ligands, ligand 2 was selected for further in vitro and in vivo studies.\nAβ(1–42) aggregates were prepared as described in the literature. Briefly, Aβ(1–42) peptide (200 μM) was dissolved in PBS and stirred gently at 37 °C for 2 d. The Aβ(1–42) aggregate formation was confirmed by thioflavin-T fluorescence assay. In vitro binding assays were carried out using the methods described in the literature with some modifications. Various concentrations of ligands (10–400 nM) were dissolved in DMSO, which were then added to PBS solutions of Aβ(1–42) aggregates (1 μM) charged in 96-well black clear-bottom plates. The final concentration of DMSO in a total volume of solution was 1%. Non-specific binding was determined in the absence of Aβ(1–42) aggregates. The reaction mixtures were incubated at 37 °C for 1 h, after which the fluorescence spectra of the ligands were obtained (excitation 510–560 nm and emission 590–660 nm) using a monochromator multimode microplate reader. All experiments were performed in triplicate. Kd values were determined using GraphPad Prism software 5."}, "[1]": {"assay": "Excitation and emission spectra", "type": "physicochemical", "conditions": "methanol, 2.5 μM", "procedure": "Despite this, ligand 2 has sufficient red-shifted emission for optical imaging.\nLigand 2 was dissolved in methanol (2.5 μM), and its excitation and emission spectra were obtained using a Mithras[2] LB 943 monochromator multimode microplate reader (Berthold Technologies, Bad Wildbad, Germany)."}, "Aβ plaques": {"molecular_target": "Aβ plaques (Homo sapiens, UniProt P05067)", "sequence (P05067 672-711 limits assumed)": "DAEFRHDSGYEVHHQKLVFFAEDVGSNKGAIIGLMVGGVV", "assay": "Fluorescent staining of Aβ plaques in mouse brain sections", "parameters": "species or system double transgenic mouse (Tg APP/PS-1)", "procedure": "Fluorescent staining of Aβ plaques by 2 was performed using the brain sections from a double transgenic mouse (Tg APP/PS-1). Localization of the Aβ plaques was confirmed by immunofluorescent staining the adjacent brain sections from the transgenic mouse with an anti-Aβ antibody (Fig. 6). The Aβ plaques in the cerebral cortex and hippocampus regions of the transgenic mouse brain sections were stained with 2 (Fig. 6a–c). The staining pattern was consistent with that observed with an Aβ-specific antibody (Fig. 6d–f).\nFigure 6 A double transgenic mouse brain section (a–c) and an age-matched wild-type mouse brain section (g–i) stained with 2. The adjacent double transgenic mouse brain section (d–f) and age-matched wild-type mouse brain section (j–l) stained with an Aβ-specific antibody. Magnification of the regions in white boxes (c,f,i and l). Scale bars: 100 μm (c,f,i and l) and 200 μm (the rest).\nA double transgenic mouse (APP/PS1, male, 18 months old) was transcardially perfused with PBS, followed by 10% neutral buffered formalin (NBF) under anesthesia. The brain was then immediately removed from skull and post-fixed in 10% NBF for 24 h. The hippocampus and cerebral cortex regions were sliced using brain matrix, embedded in paraffin, and sectioned serially into 4 μm thickness. Brain sections from an age-matched wild-type mouse (male) were obtained as described above. […]"}, "[2]": {"assay": "Metabolism study of 2 (TLC with fluorescence detection of brain homogenates)", "type": "in vivo, Balb/C nude mice", "procedure": "In order to further investigate the metabolites of [^18F]2, metabolism study of 2 was also performed; the brain homogenates were analyzed by TLC, followed by fluorescence detection.\nAfter ex vivo optical imaging, the brain tissues were homogenized in 1 mL of acetonitrile and centrifuged. The supernatants were analyzed by TLC using a 4:1 mixture of ethyl acetate–hexane as the developing solvents, and the TLC plates were subjected to optical imaging for 1 sec (excitation, 570 nm; emission, 660 nm)."}, "HIV-1 protease": {"system": "HIV-1 protease", "parameters": "method as in PMID 8087563", "conditions": "cited from earlier work"}}, "data": [{"smiles": "CNc1ccc(/C=C/C2=[O+][B-](F)(F)OC(/C=C/c3ccc(OCCOCCF)cc3)=C2)cc1", "note": "[Ligand 1, BF2 complex of 4′-monomethylamino-4″-(2-(2-fluoroethoxy)ethoxy)curcuminoid]", "values": [{"measurement": "Kd", "setting": "Aβ(1–42) aggregates", "result": 33.8, "unit": "nM"}]}, {"smiles": "CN(C)c1ccc(/C=C/C2=[O+][B-](F)(F)OC(/C=C/c3ccc(OCCOCCF)cc3)=C2)cc1", "note": "[Ligand 2, BF2 complex of 4′-dimethylamino-4″-(2-(2-fluoroethoxy)ethoxy)curcuminoid]", "values": [{"measurement": "Kd", "setting": "Aβ(1–42) aggregates", "result": 19.7, "unit": "nM"}, {"measurement": "emission", "setting": "[1]", "result": 650, "unit": "nm"}, {"measurement": "excitation", "setting": "[1]", "result": 550, "unit": "nm"}, {"measurement": "staining of Aβ plaques", "setting": "Aβ plaques; Tg APP/PS-1 mouse brain sections, cerebral cortex and hippocampus, 100 μM, 10 min", "result": "stained"}, {"measurement": "staining of brain sections", "setting": "Aβ plaques; age-matched wild-type mouse brain sections", "result": "no notable positive staining"}, {"measurement": "fluorescent spot of 2 on TLC of brain homogenate", "setting": "[2]; 2-min sample", "result": "a fluorescent spot was detected"}, {"measurement": "fluorescent spot of 2 on TLC of brain homogenate", "setting": "[2]; 30- and 60-min samples", "result": "did not appear"}]}, {"smiles": "COc1cc(/C=C/C2=[O+][B-](F)(F)OC(/C=C/c3ccc(OCCOCCF)c(OC)c3)=C2)ccc1O", "note": "[Ligand 3, BF2 complex of 4′-(2-(2-fluoroethoxy)ethoxy)curcuminoid]", "values": [{"measurement": "Kd", "setting": "Aβ(1–42) aggregates", "result": 138, "unit": "nM"}]}, {"smiles": "CN(C)c1ccc(/C=C/C2=[O+][B-](F)(F)OC(/C=C/c3ccc(OCC(O)CF)cc3)=C2)cc1", "note": "(centres unmarked) [Ligand 4, BF2 complex of 4′-dimethylamino-4″-(3-fluoro-2-hydroxypropoxy)curcuminoid]", "values": [{"measurement": "Kd", "setting": "Aβ(1–42) aggregates", "result": 15.3, "unit": "nM"}]}, {"smiles": "COc1cc(/C=C/C2=CC(/C=C/c3ccc(O)c(OC)c3)=[O+][B-](F)(F)O2)ccc1O", "note": "[difluoroboron-curcumin]", "values": [{"measurement": "IC50", "setting": "HIV-1 protease", "result": 24, "unit": "µM"}]}]}
